{
  "source": "patent US11696914B1",
  "about": "(priority 2019, dated 2023)",
  "key": {"[1]": {"system": "Herpes Simplex Virus 1", "experiment": "microbe, parasite or virus in culture", "assay_type": "cell-based", "settings": "Human alphaherpesvirus 1"}, "[2]": {"system": "Vero", "settings": "African green monkey"}, "[3]": {"biological_target": "SARS-CoV-2 Spike RBD (Severe acute respiratory syndrome coronavirus 2, UniProt P0DTC2)", "assay_type": "binding"}, "[4]": {"system": "Marburg virus (MARV), Musoke strain", "experiment": "organism not typed", "assay_type": "cell-based", "settings": "HeLa; n=6; read-out: IC50 ± SEM versus MARV Musoke strain"}, "[5]": {"settings": "mouse, microsomes; cited from earlier work"}, "[6]": {"experiment": "in vitro", "settings": "human"}, "[7]": {"system": "Hartley guinea pigs", "settings": "both, guinea pig, in vivo"}, "[8]": {"system": "Rift Valley fever virus", "experiment": "microbe, parasite or virus in culture", "assay_type": "cell-based", "settings": "Vero 76"}},
  "note": "Where two headings read alike, the source gives them in different places.",
  "data": [
    {"smiles": "COc1ccc2nc3cc(Cl)ccc3c(Nc3cc(CN4CCCC4)c(O)c(CN4CCCC4)c3)c2n1", "note": "[Pyronaridine, 4-[(7-Chloro-2-methoxybenzo[b][1,5]naph-thyridin-10-yl)amino]-2,6-bis(1-pyrrolidinylmethyl)phenol phosphate (1:4)]", "values": [
      {"measurement": "EC50", "setting": "[1]", "value": "> 6", "unit": "µM"},
      {"measurement": "EC90", "setting": "[1]", "value": "> 6", "unit": "µM"},
      {"measurement": "CC50", "setting": "[2]", "value": 3.2, "unit": "µM"},
      {"measurement": "Kd", "setting": "[3]; pH5.2", "value": 0.618, "unit": "µM"},
      {"measurement": "Kd", "setting": "[3]; pH 7.4", "value": 0.647, "unit": "µM"},
      {"measurement": "IC50", "setting": "[4]", "value": "1.08 ± 0.197", "unit": "µM"},
      {"measurement": "Relative Peak Area/Abundance MLM", "setting": "[5]", "value": 100, "unit": "%"},
      {"measurement": "CC50", "setting": "[6]", "value": "> 100", "unit": "µM"},
      {"measurement": "guinea pigs found dead on days 5 and 6", "setting": "[7]", "value": "2 of 6"},
      {"measurement": "guinea pigs found dead within 30 mins post injection", "setting": "[7]", "value": "4 of 6"},
      {"measurement": "guinea pigs having any abnormal clinical observations", "setting": "[7]", "value": "1 of 6"},
      {"measurement": "maximum tolerated dose (MTD), single dose", "setting": "[7]; ip", "value": 125, "unit": "mg/kg"},
      {"measurement": "maximum tolerated dose (MTD), single dose", "setting": "[7]; po", "value": "> 600", "unit": "mg/kg"},
      {"measurement": "EC50", "setting": "[8]", "value": 3.2, "unit": "µM"}
    ]}
  ]
}
